Patent US12630523B2, “Isoquinoline derivatives for use as antiviral and antitumour agents” (priority 2021, dated 2026)
Where two headings read alike, the source gives them in different places.

Tests used:
Assay type in all cases: cell-based
[1] = tested on: SARS-CoV-2 isolate BetaCov/Belgium/GHB-03021/2020; experiment: microbe, parasite or virus in culture; conditions: 1.25 μM (non-toxic compound concentration), n4; for inhibition at 1.25 µM: Severe acute respiratory syndrome coronavirus 2
[2] = tested on: CaSki (ATCC CRM-CRL-1550); experiment: Monolayer assay using Sulphorhodamine B (SRB) staining, CaSki; conditions: Homo sapiens, Ca-Ski
Experimental: Various cell culture cells grown as monolayers are harvested from exponential growing cultures after treatment with various OC compounds at different concentrations. For this depending on the cell line, 10.000 to 30.000 cells were plated in 96-well flat-bottom microtiter plates. After a 24 h recovery period to allow cells to resume exponential growth, supernatants are discarded and 100 μl of culture medium (eight control wells/plate) or culture medium with the test compound are added by a liquid handling robotic system (Microlab® Starlet, Hamilton) and treatment continued for 72 hrs. Compounds are applied at 9 concentrations and eight wells/concentration). At least three independent experiments are performed. For SRB staining, cells are fixed with SRB01 (Tab. 5) for 1 h at 4° C. (final concentration of TCA=10%) washed with a plate washer (Hydroflex, Tecan©) for five times with H2O; and stained with 100 μl of SRB02 at room temperature for 10 min following 4 washes in SRB03 and finally 100 μl of developer solution SRB04 for 5 minutes with shaking. Optical density is assessed using a plate-reader (Sunrise, Tecan©) at 540 nm.
Concentrations required for half maximal response of the compound for cell growth inhibition (EC50) is calculated by non-linear regression (log[conc. of inhibitor] versus response (% T/C)) using the analysis software GraphPad Prism®, Prism 5 for windows, version 5.01 (GraphPad Software Inc., CA).

HPV16 E7 protein = target: T1, HPV16 E7 protein (Human papillomavirus type 16, UniProt P03129); conditions: CaSki cells; for % Dad: adjusted degradation, CHX steady state set to 100% degradation
T1 construct: endogenous in cells; host or cells: CaSki cells (HPV16-positive cervical carcinoma)
T1 sequence (P03129 whole entry): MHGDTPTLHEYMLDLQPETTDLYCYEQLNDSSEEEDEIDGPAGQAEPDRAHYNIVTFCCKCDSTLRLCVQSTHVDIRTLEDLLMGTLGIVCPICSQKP
Experimental: For intracellular antibody labeling, 0.5×10^6 cells are washed once with 1 ml ice-cold PBS. Cells are centrifuged at 350×g for 5 minutes at 4° C. and then fixed in 1% paraformaldehyde (1 ml/10^6 cells) for 20 minutes at 4° C. Cells are washed with 1 ml ice-cold PBS and centrifuged at 350×g for 5 minutes at 4° C. To permeabilize cells, 100% ice-cold methanol (1 ml/10^6 cells) is added to the cells and incubated for 20 minutes at 4° C. followed by centrifugation at 350×g for 5 minutes at 4° C. Cells are washed with 1 ml ice-cold PBS, centrifuged at 350×g for 5 minutes at 4° C. and resuspended in 0.1% saponin+2% FBS in PBS (ice-cold). Cells are left for 20-30 minutes at room temperature to reduce the background signal and then centrifuged at 350×g for 5 minutes at 4° C. The primary antibody (mAb_HPV16E7-1 (VS13004); concentration 1 μg/μl) is diluted in 0.1% saponin+2% FBS (dilution 0.25 μg/50 μl of incubation buffer per 1×10^6 cells (5 ng/μl)). Cells are incubated with primary antibody for 30 minutes at room temperature, washed with 0.1% saponin+2% FBS and centrifuged at 350×g for 5 minutes at 4° C. The secondary antibody (FITC conjugated goat anti-mouse IgG1-IgM, BD, cat. #555988) is diluted in 0.1% saponin+2% FBS (dilution 1:50). Cells are incubated with secondary antibody for 30 minutes at room temperature, washed once with 0.1% saponin+2% FBS, once with PBS and centrifuged at 350×g for 5 minutes at 4° C.
Cells are resuspended in 700 μl PBS prior to CF analysis with a Beckman Coulter FC 500 MPL, (excitation laser 488 nm). Data analysis is done using the Beckman Coulter software packages MXP for acquisition and CXP for data analysis which includes MFI calculation. Detection of HPV-E7 protein expression is based on morphology back-gating of FL1 histogram (logarithmic scale) with gating for dot plot FS (Forward Scatter) log/SS (Sideward Scatter) log and gating for histograms SS log.
In order to define the level of E7 protein expression and to study the extent of E7 protein steady state level reduction in E7 expressing cells in the presence of various compounds, FC analysis is implemented using the intracellular antibody labeling procedure for monoclonal antibodies to HPV E7. E7 signal intensities are analyzed from the obtained FL1 histograms at logarithmic scale. The FL1 single histogram graph represents the variation in the mean fluorescence intensity (MFI) channel for cells treated with selected compounds compared to cells not incubated with primary antibodies but incubated with secondary, which allows to test for auto-fluorescence, and non-compound treated cells as controls. Non-primary antibody-stained cells are used to set the acquisition parameters to zero. Decrease of the mean fluorescence intensity channel corresponds to a decrease in the expression of HPV16 E7 protein. Degradation of E7 in cells is calculated as percent (%) reduction in MFI(x-Me) using the following formulas: % Drel=(T−C)/T*100; i) relative degradation: % Dad=(T−C)/(T−CHX)*100; ii) adjusted degradation: • Drel=relative degradation, • Dad=adjusted degradation assuming CHX % Drel=100; • T=MFI of non-treated cells; • C=MFI of compound treated cells; • CH=MFI of cycloheximide (CHX) treated cells;
For comparison within one experiment i) the % relative degradation (Drel) is sufficient, whereas for comparison between two or more experiments ii) the adjusted degradation (Dad) is used and CHX steady state is set to a 100% degradation parameter.
1×10^6 freshly seeded CaSki cells (ATCC CRL-7915), are grown in 10 cm diameter cell culture dishes in RPMI1640, 10% FCS medium at 37° C. 5% CO2 overnight and then incubated in the presence of 10 μM Cycloheximide (CHX) 10 μM OC246 or with vehicle alone for four hours at 37° C. 5% CO2. Following this E7 protein is assessed by cytofluorimetric analysis using intracellular HPV16 E7 antibody labeling. […]

[3] = SRB assay from Caski cells, “0” = no activity detected with the concentrations tested, read-out: EC50 mean

| Structure (SMILES) | inhibition at 1.25 µM [1] [%] | % Dad (HPV16 E7 protein) [%] | other results |
| --- | --- | --- | --- |
| CS(=O)(=O)O.Cc1c(O)cccc1C(=O)N[C@@H](CSc1ccccc1)[C@H](O)CN1C[C@H]2CCCC[C@H]2C[C@H]1C(=O)NC(C)(C)C [Neifinavir-Mesylat, reference compound] |  |  | % Inhibition [1]: 9.49% |
| CN(C)CCNC(=O)C1c2ccccc2C(=O)N(Cc2ccc(N(C)C)cc2)C1c1ccc(C(F)(F)F)cc1 (centres unmarked) [OC382] | 41.2 |  | EC50 [2, 3]: 2300 nM |
| Cc1ccc(CN2C(=O)c3ccccc3C(C(=O)NCCN(C)C)C2c2ccc(C(F)(F)F)cc2)cc1 (centres unmarked) [OC377] | 81.6 | 35 | EC50 [2, 3]: 6750 nM |
| Cc1ccc(CN2C(=O)c3ccccc3C(C(=O)Nc3cccc(N4CCN(C)CC4)c3)C2c2ccc(Cl)c(Cl)c2)cc1 (centres unmarked) [OC245] |  | 0 |  |
| Cc1ccc(CN2C(=O)c3ccccc3C(C(=O)NCc3cccnc3)C2c2ccc(Cl)cc2)cc1 (centres unmarked) [OC255] |  | 2 |  |
| COc1cc2c(cc1OC)[C@@H](C(=O)Nc1cccc(N3CCN(C)CC3)c1)[C@H](c1ccc(C(F)(F)F)cc1)N(Cc1ccc(C)cc1)C2=O (relative stereo) [OC971] |  | 26 |  |
| Cc1ccc(CN2C(=O)c3ccccc3C(C(=O)NCCN(C)C)C2c2ccc(C(F)(F)F)nc2)cc1 (centres unmarked) [OC381] | 43.7 | 41 | EC50 ([2]; read-out: EC50 mean [nM]): 17500 nM |
| CC(=O)Nc1ccc2c(c1)C(=O)N(Cc1ccc(C)cc1)[C@@H](c1ccc(C(F)(F)F)cc1)[C@@H]2C(=O)Nc1cccc(N2CCN(C)CC2)c1 (relative stereo) [OC970] | 3.03 | 20 | EC50 ([2]; read-out: EC50 mean [nM]): 5550 nM |
| CN(C)CCNC(=O)C1c2ccccc2C(=O)N(Cc2ccc(N)cc2)C1c1ccc(C(F)(F)F)cc1 (centres unmarked) [OC380] | 72.6 | 3 | EC50 [2, 3]: 11400 nM |
| CO[C@H]1C[C@@H]2CC[C@@H](C)[C@@](O)(O2)C(=O)C(=O)N2CCCC[C@H]2C(=O)O[C@H]([C@H](C)C[C@@H]2CC[C@@H](O)[C@H](OC)C2)CC(=O)[C@H](C)/C=C(\C)[C@@H](O)[C@@H](OC)C(=O)[C@H](C)C[C@H](C)/C=C/C=C/C=C/1C [Rapamycin, reference compound] | 21.1 |  |  |
| Cc1ccc(CN2C(=O)c3ccccc3C(C(=O)N3CCN(C=O)CC3)C2c2ccc(Cl)cc2)cc1 (centres unmarked) [OC258] |  | 0 |  |
| COc1ccc2c(c1)C(=O)N(Cc1ccc(C)cc1)[C@@H](c1ccc(C(F)(F)F)cc1)[C@@H]2C(=O)Nc1cccc(N2CCN(C)CC2)c1 (relative stereo) [OC969] |  | 66 |  |
| Cc1ccc(CN2C(=O)c3ccccc3C(C(=O)NCc3ccc(N(C)C)cc3)C2c2ccc(Cl)cc2)cc1 (centres unmarked) [OC254] |  | 16 |  |
| Cc1ccc(CN2C(=O)c3ccccc3C(C(=O)N3CCN(C)CC3)C2c2ccc(Cl)cc2)cc1 (centres unmarked) [OC256] |  | 8 |  |
| Cc1ccc(CN2C(=O)c3ccccc3C(C(=O)NCCN3CCCC3)C2c2ccc(Cl)cc2)cc1 (centres unmarked) [OC251] |  | 1 |  |
| O=C(NOCC1CC1)c1ccc(F)c(F)c1Nc1ccc(I)cc1Cl [CI-1040, 2-(2-Chloro-4-iodophenylamino)-N-(cyclopropylmethoxy)-3,4-difluorobenzamide, reference compound] | 146 |  |  |
| C[C@@H]1C[C@@H]([C@H](O)CC2CC(=O)NC(=O)C2)C(=O)[C@@H](C)C1 [CHX, Cycloheximide, reference compound] |  |  | % Drel (relative degradation) (HPV16 E7 protein; 10 μM, four hours): 78.78%; % Dab (adjusted degradation) (HPV16 E7 protein; 10 μM, four hours, CHX set to 100): 100%; MFI (mean fluorescence intensity) of E7 signal (HPV16 E7 protein; 10 μM, four hours, vehicle T 8.06): 1.71 |
| CN(C)CCNC(=O)C1c2ccccc2C(=O)N(Cc2ccc(C(F)(F)F)cc2)C1c1ccc(C(F)(F)F)cc1 (centres unmarked) [OC378] | 43.4 | 48 | EC50 [2, 3]: 5690 nM |
| Cc1ccc(CN2C(=O)c3ccccc3C(C(=O)NCCN(C)C)C2c2ccc(Cl)cc2)cc1 (centres unmarked) [OC250] |  | 19 |  |
| Cc1ccc(C2C(C(=O)NCCN(C)C)c3ccccc3C(=O)N2Cc2ccc(C(F)(F)F)cc2)cc1 (centres unmarked) [OC379] | 33.4 | 26 | EC50 [2, 3]: 11900 nM |
| COc1ccc2cc1Oc1ccc(cc1)C[C@H]1c3c(cc4c(c3Oc3cc5c(cc3OC)CCN(C)[C@@H]5C2)OCO4)CCN1C [Cepharantin, reference compound] |  |  | % Inhibition [1]: 2.32% |
| c1c2c(cc3c1OCO3)-c1cc3ccc4c(c3c[n+]1CC2)OCO4 [Coptisin, reference compound] |  |  | % Inhibition [1]: 98.97% |
| COCCNC(=O)C1c2ccccc2C(=O)N(Cc2ccc(C)cc2)C1c1ccc(Cl)cc1 (centres unmarked) [OC252] |  | 0 |  |
| Cc1ccc(CN2C(=O)c3ccccc3C(C(=O)Nc3cccc(N4CCN(C)CC4)c3)C2c2ccc(Br)cc2)cc1 (centres unmarked) [OC247] | 30.6 | 6 | EC50 ([2]; read-out: EC50 mean [nM]): 6730 nM |
